Source: patent US8772499B2, “TRPV3 modulators” (AbbVie Inc., priority 2011, dated 2014)
Read-outs that look alike come from different tables or passages of the source.

Key:
human TRPV3 = target: T1, human TRPV3 (Homo sapiens, UniProt Q8NET8); assay: In vitro antagonism of recombinant human TRPV3 activation (FLIPR Tetra calcium assay); format: cell-based; details: HEK293 cells stably expressing human TRPV3, agonist 2-APB at 80 μM
T1 construct: expressed in transfected cells
T1 sequence (Q8NET8 1-790): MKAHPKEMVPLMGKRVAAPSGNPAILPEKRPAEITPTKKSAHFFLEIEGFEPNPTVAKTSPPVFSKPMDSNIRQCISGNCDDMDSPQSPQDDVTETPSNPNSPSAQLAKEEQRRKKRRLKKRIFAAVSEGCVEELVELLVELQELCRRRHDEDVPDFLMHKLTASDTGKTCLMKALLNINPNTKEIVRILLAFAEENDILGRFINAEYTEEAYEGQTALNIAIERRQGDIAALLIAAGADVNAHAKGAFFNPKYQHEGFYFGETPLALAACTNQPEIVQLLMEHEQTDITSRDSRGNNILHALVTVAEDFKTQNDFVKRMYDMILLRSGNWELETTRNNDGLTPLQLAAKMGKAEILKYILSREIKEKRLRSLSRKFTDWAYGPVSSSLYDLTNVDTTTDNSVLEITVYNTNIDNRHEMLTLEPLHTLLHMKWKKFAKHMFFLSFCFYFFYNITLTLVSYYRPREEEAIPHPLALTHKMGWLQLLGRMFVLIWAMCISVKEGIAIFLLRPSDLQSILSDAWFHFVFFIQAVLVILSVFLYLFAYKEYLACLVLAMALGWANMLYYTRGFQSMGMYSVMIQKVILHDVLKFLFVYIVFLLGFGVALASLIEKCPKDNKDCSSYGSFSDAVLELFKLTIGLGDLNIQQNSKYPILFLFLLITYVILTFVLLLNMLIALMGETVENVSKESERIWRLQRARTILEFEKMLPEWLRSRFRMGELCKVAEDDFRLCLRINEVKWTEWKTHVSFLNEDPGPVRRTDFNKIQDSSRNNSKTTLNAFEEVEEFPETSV
Experimental: Test compounds were evaluated for ability to antagonize the activation of recombinant human TRPV3 using FLIPR® Tetra cellular screening. Specifically, on the day prior to the experiment recombinant HEK293 cells that stably express human TRPV3 were removed from tissue culture flasks and plated in growth medium at 20,000 cells/well into Poly-d-lysine coated black/clear 384-well Plate (Corning, 3845) using a Multidrop® dispenser (ThermoScientific, Waltham, Mass.). Prior to the start of the assay, the medium was removed by aspiration, and cells were loaded with 30 μL no-wash FLIPR® Calcium-4 dye (λEX=470-495 nm, λEM=515-575 nm; Molecular Devices, Sunnyvale, Calif.). The cells were then incubated for 90-120 minutes in the dark prior to addition of the test compound.
A double-addition protocol was used. The test compound (i.e., the TRPV3 antagonist) was added at the 10 second time point, followed by the addition of a TRPV3 agonist three minutes later. Each test compound evaluated was first dissolved in DMSO to prepare a 10 mM stock solution. A solution (5×) of the test compound was then prepared in DPBS (Dulbecco's Phosphate Buffered Saline) and 10 μl, of that solution was added to the cells at a delivery rate of 40 μL/sec. The TRPV3 agonist used to activate human TRPV3 expressed by the […] was 2-aminoethoxy-diphenyl borate (2-APB; Tocris Cookson, Ellisville, Mo.) at 80 μM. Final assay volume was 50 μl, Total length of an experimental run was 10 minutes.
Changes in fluorescence were measured over time using the FLIPR® instrument. The intensity of the fluorescence was captured and digitally transferred to an interfaced computer. The maximum response minus minimum response was calculated and expressed as the percentage of the maximum 2-APB response in the absence of antagonist. The concentration of 2-APB corresponds to its EC80.
Table 1 reports the IC50 values measured for the test compounds as human TRPV3 antagonists. […] Actual measured values are shown parenthetically after the reported range. In most cases, the values reported are average values from at least two runs (i.e., n≧2).

[1] = In vitro human microsomal stability assay; format: in vitro ADME
Experimental: (§1) Test compounds were evaluated for metabolic stability in an in vitro rat microsomal stability assay using rat liver microsomes (Sprague-Dawley, from BD Biosciences) and/or an in vitro human microsomal stability assay using human liver microsomes (Xenotech). […] Incubations were carried out at 37° C. with a final incubation volume of 135 μL. […] A 1.5 μL aliquot of reduced nicotine adenine disphosphonucleotide (NADPH) (Chem-Impex Int'L Inc., Lot 12532024) was also added to the time-zero plates.

[2] = In vitro rat microsomal stability assay; format: in vitro ADME, rat (Sprague-Dawley)
Experimental: as §1

[3] = actual measured value shown parenthetically, in most cases average of at least two runs, read-out: IC50
[4] = human, microsomes, 0.5 h, 0.5 μM, pH 7.4
[5] = Sprague-Dawley, rat, microsomes, 0.5 h, 0.5 μM, pH 7.4
[6] = reported range, read-out: IC50 (range class)
[7] = human liver microsomes, 0.5 μM substrate, 0.25 mg/mL microsomal protein, pH 7.4, 37° C., NADPH, 30 minutes
[8] = rat liver microsomes (Sprague-Dawley), 0.5 μM substrate, 0.25 mg/mL microsomal protein, pH 7.4, 37° C., NADPH, 30 minutes

| SMILES | IC50 (human TRPV3; [3]) [µM] | HUMAN MICROSOMAL STABILITY (% REMAINING AFTER 30 MINUTES) [1, 4] [%] | RAT MICROSOMAL STABILITY (% REMAINING AFTER 30 MINUTES) [2, 5] [%] | IC50 (human TRPV3; [6]) [µM] | HUMAN MICROSOMAL STABILITY (% REMAINING AFTER 30 MINUTES) [1, 7] [%] | RAT MICROSOMAL STABILITY (% REMAINING AFTER 30 MINUTES) [2, 8] [%] |
| --- | --- | --- | --- | --- | --- | --- |
| OC(c1ccccn1)C1(c2ccc(C(F)(F)F)c(F)c2)CCC1 (stereo not shown) [Example 17] | 1.1 | 21 | 13 |  |  |  |
| CC(C)(C)OC(=O)N1CCC(c2cccc(OC(F)(F)F)c2)(C(O)c2ccccn2)CC1 (stereo not shown) [Example 158, tert-butyl 4-[hydroxy(pyridin-2-yl)methyl]-4-[3-(trifluoromethoxy)phenyl]-piperidine-1-carboxylate] | > 20 |  |  | > 20 | 3.7 | 0.04 |
| OC(C1CCCc2cccnc21)C1(c2ccc(Cl)c(Cl)c2)CCC1 (single isomer, unassigned) [Example 182, (syn)-[1-(3,4-dichlorophenyl)cyclobutyl][5,6,7,8-tetrahydroquinolin-8-yl]-methanol] | > 20 | <0.01 | <0.01 | > 20 |  |  |
| Nc1cccnc1C(O)C1(c2ccc(Cl)c(Cl)c2)CCC1 (stereo not shown) [Example 130, (3-aminopyridin-2-yl)[1-(3,4-dichlorophenyl)cyclobutyl]methanol] | 3.11 | 4.0 | <0.01 |  |  |  |
| CC1(O)CC(c2cncc(C(F)(F)F)c2)(C(O)c2ccccn2)C1 (single isomer, unassigned) [Example 308] | 1 | 41 | 13 |  |  |  |
| OC(c1ccccn1)C1(c2ccc(Cl)c(Cl)c2)CCCO1 (single isomer, unassigned) [Example 98] | 0.11 | 7.6 | 0.020 |  |  |  |
| OC(c1ccccn1)C1(c2ccccc2OC(F)(F)F)CCCO1 (single isomer, unassigned) [Example 97, (syn)-pyridin-2-yl{2-[2-(trifluoromethoxy)phenyl]tetrahydrofuran-2-yl}-methanol] | 0.3 | 6.4 | 0.16 |  |  |  |
| OC(c1ccccn1)C1(c2ccccc2C(F)(F)F)CCC1 (stereo not shown) [Example 5, pyridin-2-yl{1-[2-(trifluoromethyl)phenyl]cyclobutyl}methanol] | 5.22 | 0.27 | 0.06 |  |  |  |
| NC1CCC1C(O)C1(c2cccc(C(F)(F)F)c2)CCC1 (stereo not shown) [Example 213, (2-aminocyclobutyl) {1-[3-(trifluoromethyl)phenyl]cyclobutyl}methanol] | 3.24 | >85 | 72 |  |  |  |
| OC(c1ccccn1)C1(c2cccc(Cl)c2)CCCO1 (single isomer, unassigned) [Example 105, (syn)-[2-(3-chlorophenyl)tetrahydrofuran-2-yl](pyridin-2-yl)methanol] | 7.57 | 42 | 0.040 |  |  |  |
| OC(C1CCCc2cccnc21)C1(c2ccc(F)c(F)c2)CCC1 (single isomer, unassigned) [Example 170, (syn)-[1-(3,4-difluorophenyl)cyclobutyl][5,6,7,8-tetrahydroquinolin-8-yl]-methanol] | > 20 | <0.01 | <0.01 | > 20 |  |  |
| CC1(O)CC(c2cccc(C(F)(F)F)c2)(C(O)c2ccccn2)C1 (single isomer, unassigned) [Example 244] | 3.6 | 80 | 77 |  |  |  |
| CN1CCC(c2ccccc2OC(F)(F)F)(C(O)c2ccccn2)CC1 (stereo not shown) [Example 149, {1-methyl-4-[2-(trifluoromethoxy)phenyl]piperidin-4-yl}(pyridin-2-yl)-methanol] | 6.2 |  |  |  | >85 | 62 |
| OC(c1ccccn1)C1(c2cccc(F)c2)CCCO1 (single isomer, unassigned) [Example 101, (syn)-[2-(3-fluorophenyl)tetrahydrofuran-2-yl](pyridin-2-yl)methanol] | > 20 | 40 | 0.17 | > 20 |  |  |
| OC(C1CCCc2cccnc21)C1(c2ccc(Cl)c(Cl)c2)CCC1 (single isomer, unassigned) [Example 181, (anti)-[1-(3,4-dichlorophenyl)cyclobutyl][5,6,7,8-tetrahydroquinolin-8-yl]-methanol] | 1.98 | <0.01 | <0.01 |  |  |  |
| OC1CC(c2ccc(Cl)c(Cl)c2)(C(O)c2ncccn2)C1 (single isomer, unassigned) [Example 312] | 1.96 | >85 | >85 |  |  |  |
| OC(c1ccccn1)C1(c2cccc(C(F)(F)F)c2)CC2(C1)OCCO2 (stereo not shown) [Example 242, pyridin-2-yl{2-[3-(trifluoromethyl)phenyl]-5,8-dioxaspiro[3.4]oct-2-yl}-methanol] | 5.1 | 45 | <0.01 |  |  |  |
| OC(c1ccccn1)C1(C2CCc3ccccc32)CCC1 (stereo not shown) [Example 55, [1-(2,3-dihydro-1H-inden-1-yl)cyclobutyl](pyridin-2-yl)methanol] | 7.12 | 1.6 | 0.29 |  |  |  |
| OC(c1ccccn1)C1(C2CCCCC2)CCC1 (stereo not shown) [Example 162, (1-cyclohexylcyclobutyl)(pyridin-2-yl)methanol] | 3.88 | 0.02 | <0.01 |  |  |  |
